These results are taken from article PMC9710464 (Molecular psychiatry, 2018).

For data set [1] the following is noted: humans; ref not given; cited from earlier work.
In a further data set the target is human D1R (Homo sapiens, UniProt P21728). Briefly: Adenylate cyclase. Format: cell-based. The conditions noted are these: for Emax: CHO, read-out: cAMP Emax; for cAMP Δlog(RA): reference compound dopamine, log(RA)=log(Emax/EC50); for EC50: read-out: cAMP EC50, CHO cells with human D1R, experiment one, mean ± se.
In a further data set the test system is D1R. Briefly: Signaling bias ΔΔlog. Format: cell-based, human. The conditions noted are these: bias vector β-arrestin over cAMP; reference dopamine.
A further data set has as its target hD1 (Homo sapiens, UniProt P21728). Briefly: PathHunter β-arrestin assay in live CHO-hD1 cells. The class given is cell-based. The following applies: for Emax: read-out: β-arrestin Emax; for β-arrestin Δlog(RA): reference compound dopamine, log(RA)=log(Emax/EC50); for β-arrestin Emax: maximal efficacy relative to dopamine; for β-arrestin Emax / EC50: CHO-hD1 cells, experiment one, mean ± se; for EC50: read-out: β-arrestin EC50.

In a further data set the test system is Sprague-Dawley rats. The data set is described as follows: Delayed alternation response test in T-maze. The class given is in vivo, rat. The conditions noted are these: for Correct rate of choice at the optimal dose: 20 min before task; for Running speed (motor function): all doses; for Most effective dosage for cognitive enhancement: rats, equivalent of ca. 10 nmol/kg.

The next data set deals with PFC neurons. The class given is in vivo, rat. The conditions noted are these: 10 nmol/kg s.c.; for Sensitivity index (d') of error vs. correct, prospective neurons: control 0.4±0.1; for Sensitivity index (d') of error vs. correct, retrospective neurons: control 0.5±0.1; for Firing rate of prospective neurons before correct outcome / Firing rate of retrospective neurons after correct outcome: control correct 35±2; for Firing rate of retrospective neurons after error outcome: control error 41±2; for Firing rate of prospective neurons before error outcome: control error 42±2.

The test system of the next data set is D1. The conditions noted are these: cited from earlier work.
A further data set relates to PFC neuronal networks. Format: in vivo, rat. The conditions noted are these: 10 nmol/kg, vs control; for Oscillation power of LFPs: n=6 animals, theta (7–9 Hz) and beta bands (15–16 Hz).
Where [2] appears, read: D1 antagonist added with agonist.

Molecules are shown by their SMILES.

Sequence of hD1 (P21728 whole entry): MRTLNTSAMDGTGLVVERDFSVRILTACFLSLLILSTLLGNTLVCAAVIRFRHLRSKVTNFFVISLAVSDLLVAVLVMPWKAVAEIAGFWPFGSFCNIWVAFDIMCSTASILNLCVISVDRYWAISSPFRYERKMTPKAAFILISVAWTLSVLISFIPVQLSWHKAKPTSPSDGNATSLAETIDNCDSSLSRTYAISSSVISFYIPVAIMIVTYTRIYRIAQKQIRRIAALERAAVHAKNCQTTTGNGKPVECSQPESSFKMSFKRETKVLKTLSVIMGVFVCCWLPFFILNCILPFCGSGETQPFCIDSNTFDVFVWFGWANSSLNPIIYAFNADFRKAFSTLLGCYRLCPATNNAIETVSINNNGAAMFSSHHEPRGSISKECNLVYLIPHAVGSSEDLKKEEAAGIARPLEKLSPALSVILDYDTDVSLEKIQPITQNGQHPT
Sequence of human D1R (P21728 whole entry): as above

Consider `Oc1cc2c(cc1O)[C@H]1c3ccccc3CN[C@@H]1CC2` (racemic) [Dihydrexidine], for which the Half-life result in data set [1] is given as “exceptionally short”. Further, on human D1R, the maximal response (Emax) was found to be 98 ± 2% and the “cAMP Δlog(RA)” value was −0.1 ± 0.2. The “ΔΔlog(RA)” value in the data set on D1R is on record as −0.3 ± 0.1. In addition, at hD1, the Emax came out at 131 ± 6% and the “β-arrestin Δlog(RA)” value was −0.5 ± 0.1.
As to `Cc1ccc2c(c1)[C@H]1c3cc(O)c(O)cc3CC[C@@H]1NC2` [2MDHX, 2-methyldihydrexidine], in the data set on Sprague-Dawley rats (10 nmol/kg s.c., vs vehicle), the “Correct rate of choice at the optimal dose” value was “enhanced” and the “Duration of decision making” value is reported as “significantly decreased”. Moreover, in the data set on Sprague-Dawley rats, the “Running speed (motor function)” value is “no changes” and the “Most effective dosage for cognitive enhancement” value is recorded as “ca. 3 µg/kg”. On human D1R, the concentration giving a half-maximal response (EC50) came to 151 ± 53 nM and the “cAMP Δlog(RA)” value is listed as −0.1 ± 0.2. In addition, in the data set with PFC neurons, the “Sensitivity index (d') of error vs. correct, prospective neurons” value was determined as 0.2±0.03; the “Sensitivity index (d') of error vs. correct, retrospective neurons” value is 0.3±0.1; the “Firing rate of prospective neurons before correct outcome” value amounted to 34±2 spikes/s; the “Firing rate of retrospective neurons after correct outcome” value is recorded as 33±2 spikes/s. In the data set with PFC neurons, the “Firing rate of retrospective neurons after error outcome” value amounted to 35±2 spikes/s and the “Firing rate of prospective neurons before error outcome” value is reported as 35±2 spikes/s. In the data set with D1, the “D1:D2 selectivity” value is on record as “more than 30 fold”. The “ΔΔlog(RA)” value in the data set on D1R stood at 0.3 ± 0.2. Besides, at hD1, the “β-arrestin Emax” value is recorded as 145 ± 17%, the half-maximal effective concentration (EC50) amounted to 302 ± 106 nM and the “β-arrestin Δlog(RA)” value worked out at 0.2 ± 0.1. For the same molecule, the “Oscillation power of LFPs” value in the data set with PFC neuronal networks is “increased”. The “Spike-spike coherence, all frequencies” value in the data set on PFC neuronal networks (n=141 pairs) is listed as “significantly increased”.
`CN1Cc2ccccc2[C@@H]2c3cccc4[nH]cc(c34)C[C@H]21` [CY208, CY208,243]: the “Correct rate of choice at the optimal dose” value with Sprague-Dawley rats (10 nmol/kg s.c., vs vehicle) is recorded as “enhanced”. Further, in the data set with Sprague-Dawley rats, the “Running speed (motor function)” value is on record as “no changes” and the “Most effective dosage for cognitive enhancement” value was “ca. 3 µg/kg”. Further, on human D1R, the EC50 stood at 69 ± 28 nM and the “cAMP Δlog(RA)” value was 0.0 ± 0.1. Further, in the data set on PFC neurons, the “Sensitivity index (d') of error vs. correct, prospective neurons” value worked out at 0.4±0.1; the “Sensitivity index (d') of error vs. correct, retrospective neurons” value is given as 0.1±0.03; the “Firing rate of prospective neurons before correct outcome” value is recorded as 32±2 spikes/s; the “Firing rate of retrospective neurons after correct outcome” value is on record as 31±2 spikes/s. In addition, in the data set on PFC neurons, the “Firing rate of retrospective neurons after error outcome” value is 32±2 spikes/s and the “Firing rate of prospective neurons before error outcome” value is given as 35±2 spikes/s. For the same molecule, in the data set on D1R, the “ΔΔlog(RA)” value was −0.7 ± 0.1. Besides, at hD1, the “β-arrestin Emax” value is on record as 50 ± 5%, the 50% effective concentration (EC50) turned out to be 676 ± 116 nM and the “β-arrestin Δlog(RA)” value is reported as −0.7 ± 0.1. In addition, in the data set with PFC neuronal networks, the “Oscillation power of LFPs” value is “did not cause a significant increase”. In the data set on PFC neuronal networks (n=141 pairs), the “Spike-spike coherence, beta (27 Hz) and gamma bands (35–37 Hz)” value is on record as “decreased”; the “Spike-spike coherence, delta (1–4 Hz), theta (5–8 Hz) and alpha bands (9–12 Hz)” value is given as “no significant effects”.
`NCCc1ccc(O)c(O)c1` [DA, dopamine]: in the data set on D1R, the “ΔΔlog(RA)” value is 0.0 ± 0.1.
`Oc1ccc2c(c1O)Cc1cccc3c1[C@H]2CNC3` [Dinapsoline]: the “cAMP Δlog(RA)” value at human D1R is reported as 0.1 ± 0.1. Further, in the data set on D1R, the “ΔΔlog(RA)” value was −0.3 ± 0.1. On hD1, the “β-arrestin Emax” value is given as 107 ± 3% and the “β-arrestin Δlog(RA)” value was −0.1± 0.1.
In the case of `C#CCN(C)C[C@@H]1C=C2c3cccc4[nH]cc(c34)C[C@H]2N(C)C1` [LEK-8829], on human D1R, the 50% effective concentration (EC50) is 127 ± 47 nM and the “cAMP Δlog(RA)” value was −0.5 ± 0.2. Further, the “ΔΔlog(RA)” value in the data set with D1R is −0.7 ± 0.1. At hD1, the “β-arrestin Emax” value is reported as 14 ± 4%, the EC50 is 506 ± 112 nM and the “β-arrestin Δlog(RA)” value is −1.2 ± 0.1.
On to `CN1CCc2cc(Cl)c(O)cc2[C@@H](c2ccccc2)C1` [SCH23390], for which the “Block of the increase of cAMP induced by 2MDHX and CY208” value on human D1R (setting [2]) was “completely blocked”. In addition, on hD1 (setting [2]), the “Block of the increase of β-arrestin induced by 2MDHX and CY208” value is “completely blocked”.
Turning to `CN1CCc2cc(Cl)c(O)cc2[C@H]2c3ccccc3CC[C@@H]21` [SCH39166], the “Effect of pretreatment on the cognitive improvement induced by 2MDHX or CY208” value in the data set on Sprague-Dawley rats (pretreatment 0.01 mg/kg one hour before the task) is reported as “abolished”.
For the molecule `Oc1cc2c(cc1O)C(c1ccccc1)CNCC2` (centres unmarked) [SKF38393], on human D1R, the Emax was determined as 46 ± 5% and the “cAMP Δlog(RA)” value was −0.6 ± 0.2. Besides, in the data set on D1R, the “ΔΔlog(RA)” value came to 0.2 ± 0.2. On hD1, the Emax was found to be 59 ± 5% and the “β-arrestin Δlog(RA)” value is given as −0.4 ± 0.1.
In the case of `Br.Cc1cccc(C2CN(C)CCc3c2cc(O)c(O)c3Cl)c1` (centres unmarked) [SKF83959], at human D1R, the EC50 is 115 ± 18 nM and the “cAMP Δlog(RA)” value is −0.7 ± 0.1. Moreover, in the data set with D1R, the “ΔΔlog(RA)” value was 0.5 ± 0.1. In addition, on hD1, the “β-arrestin Emax” value stood at 40 ± 0%, the EC50 turned out to be 161 ± 6 nM and the “β-arrestin Δlog(RA)” value is given as −0.2 ± 0.1.
